Test results: US20090053220A1, “METHODS AND COMPOSITIONS FOR THE INHIBITION OF HIV INFECTION OF T CELLS” (priority 2006, published 2009)

What was measured:
[1] = molecular target: envelope protein of HIV strain JRCSF with V38A (HIV strain JRCSF) (UniProt P20871); assay: cell-based or functional assay
[2] = molecular target: envelope protein of HIV strain JRCSF with G36D (HIV strain JRCSF) (UniProt P20871); assay: cell-based or functional assay
[3] = molecular target: envelope protein of HIV strain JRCSF with N43D (HIV strain JRCSF) (UniProt P20871); assay: cell-based or functional assay
[4] = molecular target: envelope protein of HIV strain JRCSF (WT) (HIV strain JRCSF) (UniProt P20871); assay: cell-based or functional assay
[5] = system: JRCSF WT envelope reporter virus; assay type: cell-based, HIV
Text: A DNA expression vector comprising the envelope protein of HIV strain JRCSF was constructed using a commercially available pCI-neo vector (Promega, Madison, Wis.). JRCSF is a primary isolate obtained from an HIV patient which was deposited with the NIH AIDS Research & Reference Reagent Program (Cat. No. 2708). The JRCSF envelope open reading frame was amplified by standard PCR using the following primers: […]
These primers initiate priming at codon 2 of the envelope open reading frame and immediately downstream of the envelope termination codon, respectively. They contain restriction enzymes recognition sequences suitable for directional cloning into the pCI-neo vector. This JRCSF envelope protein expression vector was used in Example 6 below as the WT control. […]
Viral infections were carried out in a human malignant glioma (U87) target cell expressing the human CD4 receptor and the human CCR5 chemokine receptor. […] After 3 days the level of luciferase expressed in target cells was measured using a luciferase reporter gene assay reagent (Promega, Madison, Wis.), as described by the manufacturer. […]

[6] = system: patient-derived envelope population KJM (day 1) reporter virus; assay type: cell-based, HIV; details: KJM D1 virus
Text: (§1) HIV RNA was extracted from patient serum using QIAamp isolation kits (Qiagen, Hilden. Germany) and used to generate cDNA with random hexamer primers (SuperScript First Strand Synthesis System for RT-PCR, Invitrogen, Carlsbad, Calif.). HIV envelope protein open reading frame sequences were specifically amplified using a nested PCR procedure with outer PCR primers: […]
(§2) which initiate priming 239 bases upstream and 349 bases downstream of the envelope open reading frame, respectively. The inner PCR primers were the same primers used for directional cloning of the envelope sequence populations into the pCI-neo vector, as described in Example 4. The resulting PCR products represent a population of envelope sequences from HIV viruses present in two patient samples, KJM (day 1) and KJM (week 9).
(§3) HIV reporter viruses for purposes of this experiment were constructed from: (1) the JRCSF WT envelope protein vector, (2) the T-20-resistant envelope protein variants G36D, V38A, or N43D generated in Example 4; or (3) the patient derived HIV envelope protein population of vectors from KJM (Day 1) or KJM (Week9) generated in Example 5. The reporter viruses were produced by co-transfecting the human embryonic kidney cell line HEK293FT (Invitrogen, Carlsbad, Calif.) with the envelope vectors described above and an envelope-deficient proviral DNA encoding a luciferase reporter gene. The cells were propagated in Dulbecco's Modified Eagle Medium (Invitrogen, Carlsbad, Calif.) supplemented with 10% fetal bovine serum (Invitrogen, Carlsbad, Calif.). Transfections were performed using Lipofectamine 2000 (Invitrogen, Carlsbad, Calif.). Culture supernatants were harvested 48 hours post-transfection and filtered through a 0.45 micron filter prior to infecting target cells.
(§4) Viral infections were carried out in a human malignant glioma (U87) target cell expressing the human CD4 receptor and the human CCR5 chemokine receptor. Target cells were seeded into 96-well plates at a density of 3000 cells/well in Dulbecco's Modified Eagle Medium (Invitrogen, Carlsbad, Calif.) supplemented with 10% fetal bovine serum (Invitrogen. Carlsbad, Calif.) and cultured for […]. Target cells were then exposed to the virus generated in Example 6 mixed with varying concentrations of the entry inhibitors T-20 or an anti-CD4 MAb in a final volume of 40-80 microliters. Infection was triggered by centrifugation of the 96-well plates at 1200*g for 1.5-2.0 hours at 25° C. (i.e. spinoculation). After spinoculation, culture medium was added to a final volume of […] per well and the infected cultures were incubated for 3 days at 37° C. After 3 days the level of luciferase expressed in target cells was measured using a luciferase reporter gene assay reagent (Promega, Madison, Wis.), as described by the manufacturer.
(§5) Dose-response curves for the inhibition of luciferase expression by entry inhibitors were derived by fitting the luciferase data with a four-parameter logistic using Origin 7 Client software (OriginLab, Northampton, Mass.). Each dose-response experiment comprised a nine point concentration curve plus untreated controls, all assayed in triplicate wells (raw data not shown). For each EC50 determination, the results of three or more independent experiments were used to calculate the average EC50 and standard error values.

[7] = system: patient-derived envelope population KJM (week 9) reporter virus; assay type: cell-based, HIV; details: KJM W9 virus
Text: as §1, §2, §3, §4, §5

[8] = system: T-20-resistant JRCSF envelope variant V38A reporter virus; assay type: cell-based, HIV
Text: (§6) In addition, three single amino acid substitutions, G36D, V38A and N43D, known to confer T-20 resistance for HIV were introduced into the JRCSF open reading frame by site-directed mutagenesis (QuikChange II kit, Stratagene, La Jolla, Calif.), thereby generating three T-20-resistant HIV envelope protein expression vectors called […], V38A and N43D.
as §3, §4, §5

[9] = system: T-20-resistant JRCSF envelope variant G36D reporter virus; assay type: cell-based, HIV
Text: as §6, §3, §4, §5

[10] = system: T-20-resistant JRCSF envelope variant N43D reporter virus; assay type: cell-based, HIV
Text: as §6, §3, §4, §5

[11] = average +/- standard error, 4 determinations

Question: T-20 (peptide) was tested. Which Fold Change (EC50MUT/EC50WT JRCSF) [1] did it give?
Answer: 32 fold

Question: What about the PMI [1] of the same substance?
Answer: 91%

Question: And the Fold Change (EC50MUT/EC50WT JRCSF) [2]?
Answer: 11 fold

Question: And the PMI [2]?
Answer: 99%

Question: And the Fold Change (EC50MUT/EC50WT JRCSF) [3]?
Answer: 22 fold

Question: And the PMI [3]?
Answer: 96%

Question: And the PMI [4]?
Answer: 98%

Question: Which PMI [5] does the source give for enfuvirtide here?
Answer: 98 ± 2.4

Question: And the EC50 [5, 11]?
Answer: 0.013 ± 0.0035 µg/mL

Question: What about the PMI [6] of the same substance?
Answer: 99 ± 1.3

Question: And the EC50 [6, 11]?
Answer: 0.0091 ± 0.003 µg/mL

Question: What about the PMI [7] of the same substance?
Answer: 100 ± 0.58

Question: And the “Fold Change” value ([7]; EC50W9/EC50D1)?
Answer: 0.93

Question: And the EC50 [7, 11]?
Answer: 0.0085 ± 0.0027 µg/mL

Question: What about the PMI [8] of the same substance?
Answer: 91 ± 8.9

Question: What about the “Fold Change” value ([8]; EC50MUT/EC50WT JRCSF) of the same substance?
Answer: 32

Question: What about the EC50 [8, 11] of the same substance?
Answer: 0.41 ± 0.21 µg/mL

Question: And the PMI [9]?
Answer: 99 ± 1.5

Question: And the “Fold Change” value ([9]; EC50MUT/EC50WT JRCSF)?
Answer: 11

Question: What about the EC50 [9, 11] of the same substance?
Answer: 0.14 ± 0.026 µg/mL

Question: And the PMI [10]?
Answer: 96 ± 3.4

Question: And the “Fold Change” value ([10]; EC50MUT/EC50WT JRCSF)?
Answer: 22

Question: What about the EC50 [10, 11] of the same substance?
Answer: 0.28 ± 0.08 µg/mL
